Reference: ChEMBL document CHEMBL1141251, “Anthelmintic macrolactams from Nonomuraea turkmeniaca MA7364” (2007)
Converted amounts (≈) assume the structure as drawn. The source made the active and inactive calls. The rule behind the calls is not given here.

Tests used:
[1] = system: Haemonchus contortus; assay: Anthelmintic activity against Haemonchus contortus assessed as reduction in L3 larval motility; format: functional
[2] = system: Heligmosomoides polygyrus; assay: Anthelmintic activity in Heligmosomoides polygyrus infected Swiss Webster mouse assessed as reduction in worm count at 50 mg/kg, sc on day 3 relative to control; format: functional

| Structure (SMILES) | EC90 [1] [µg/mL] | Activity [2] | Activity ([2]; route subcutaneous) [%] |
| --- | --- | --- | --- |
| CCC1CCCCCC[C@H](O[C@@H]2O[C@@H](C)[C@@H](O)[C@@H](NC)[C@H]2O)[C@@H](C)C(=O)NCCC1 (some centres undefined) | 15 (≈ 35 µM) | inactive | – |
| CCC1CCCNC(=O)[C@H](C)[C@@H](O[C@@H]2O[C@@H](C)[C@@H](O)[C@@H](NC)[C@H]2O)CCC(C)CCC1 (some centres undefined) | 29 (≈ 65.5 µM) | – | 42 |
